Measurements reported in ChEMBL document CHEMBL5727053, “Muscarinic M1 receptor positive allosteric modulators” (2019).

Target: T1, Muscarinic acetylcholine receptor M1 (Homo sapiens, UniProt P11229)
T1 sequence (P11229 whole entry): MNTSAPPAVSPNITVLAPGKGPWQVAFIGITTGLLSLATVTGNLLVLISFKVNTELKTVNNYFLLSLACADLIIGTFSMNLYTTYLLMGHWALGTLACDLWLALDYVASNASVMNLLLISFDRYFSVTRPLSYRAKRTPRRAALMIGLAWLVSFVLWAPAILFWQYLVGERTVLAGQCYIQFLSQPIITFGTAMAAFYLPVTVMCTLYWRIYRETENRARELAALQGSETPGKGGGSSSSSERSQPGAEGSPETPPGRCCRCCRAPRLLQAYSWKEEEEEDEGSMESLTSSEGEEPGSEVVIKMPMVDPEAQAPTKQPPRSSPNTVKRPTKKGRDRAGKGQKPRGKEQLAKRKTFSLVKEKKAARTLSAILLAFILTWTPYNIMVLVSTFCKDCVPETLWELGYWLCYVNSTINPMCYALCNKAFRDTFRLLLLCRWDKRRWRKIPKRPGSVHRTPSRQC
Assay: Determination of Allosteric Potency EC50 Values for Muscarinic M1 Receptor: A stable CHO cell line expressing recombinant human Muscarinic M1 receptor and pCRE-Luc reporter system was used for cell-based assay. The assay offers a non-radioactive based approach to determine binding of a compound to GPCRs. In this specific assay, the level of intracellular cyclic AMP which is modulated by activation or inhibition of the receptor is measured. The recombinant cells harbor luciferase reporter gene under the control of cAMP response element.The above cells were grown in 96 well clear bottom white plates in Hams F12 medium containing 10% fetal bovine serum (FBS). Prior to the addition of compounds or standard agonist, cells were serum starved overnight. Increasing concentrations of test compounds were added along with EC20 of acetylcholine in OptiMEM medium to the cells. The incubation was continued at 37° C. in CO2 incubator for 4 hours. Medium was removed and cells were washed with phosphate buffered saline. The cells were lysed and luciferase activity was measured in a Luminometer. Luminescence units were plotted against the compound concentrations using Graphpad software. EC50 values of the compounds were defined as the concentration required in stimulating the luciferase activity by 50% in presence of EC20 of acetylcholine.

**Q.** With O=C(N[C@H]1CCCC[C@@H]1O)C1=CN(Cc2ccccc2)c2cccnc2O1 as the compound, how does the EC50 read?
**A.** The EC50 was 1000 nM.
